{"source": "patent US9867794B2", "about": "“Regulation of osteopontin” (Pathologica LLC, priority 2007, dated 2018)", "type_in_all_cases": "cell-based, human", "key": {"G1P3": {"tested_on": "G1P3", "test": "Quantitative RT-PCR, unsorted mononuclear cells, G1P3", "method": "(§1) To evaluate the effect of MGBG on gene expression, blood samples were obtained from patients (N=18, 10 HIV-infected and 8 Healthy Controls). Mononuclear cells were isolated via Percoll gradient centrifugation. The cells were split into two tubes, one treated with 10 μM of MGBG and the other non-treated. The cells were then cultured overnight in RPMI media plus 10% fetal bovine serum at 37 C under non-adherent conditions, collected, lysed using Trizol solution, and total RNA prepared according to manufacturer's instructions (Invitrogen, Carlsbad, Calif.).\n(§2) Approximately 200 ng of total RNA prepared from each sample was converted to cDNA using the First Strand cDNA Synthesis Kit for RT-PCR [AMV] kit (Roche Applied Diagnostics, Indianapolis, Ind.) according to manufacturer's instructions. Around 5 ng of cDNA sample was then used for PCR performed on a LightCycler (Roche Applied Diagnostics, Indianapolis, Ind.) using the LightCycler FastStart DNA Master SYBR Green I kit. PCR conditions are as follows: 1 cycle of denaturation at 95° C. for 10 minutes, followed by 45 cycles of 95° C. for 10 seconds, 68° C. for 10 seconds, and 72° C. for 16 seconds.\n(§3) The sequences of gene-specific primers evaluated are listed below. All samples were also amplified with the human β-actin LightCycler-Primer set (Roche Diagnostics)."}, "IL6": {"tested_on": "IL6", "test": "Quantitative RT-PCR, unsorted mononuclear cells, IL6", "method": "as §1, §2, §3"}, "PBMCs": {"tested_on": "PBMCs", "test": "Cell viability of PBMC cultures when CCS were collected", "conditions": "each MGBG concentration (0.1-100 μM), when the CCS were collected"}, "LILRA1": {"tested_on": "LILRA1", "test": "Quantitative RT-PCR, unsorted mononuclear cells, LILRA1", "method": "as §1, §2, §3"}, "SPP1": {"tested_on": "SPP1", "test": "Microarray analysis of mononuclear cells, SPP1", "conditions": "for SPP1 signal +, Average: 10 μM MGBG", "method": "(§4) Blood samples were obtained from HIV infected patients (N=9) with positive viral load and reduced CD4 counts, and non-HIV infected, healthy controls (N=6). Blood was collected into heparin anticoagulant tubes and mononuclear cells were isolated by Percoll gradient centrifugation. The cells from each sample were split into 2: one-half receives MGBG at concentration of 10 μM and the other half received no treatment. All samples were then cultured overnight in RPMI media with 10% fetal bovine serum at 37° C. under non-adherent conditions. The next day cells were collected by centrifugation, washed one time with PBS, and lysed by resuspension in TRIZOL, and total RNA was prepared according to manufacturer's instructions (Invitrogen, Carlsbad, Calif.). […] The RNA was then amplified for microarray analysis using a 2 cycle amplification protocol according to the manufacturer's instructions (Affymetrix, Santa Clara, Calif.). The amplified RNAs were then hybridized to Human Genome U133 plus 2.0 microarrays (Affymetrix) and expression data was obtained using an Affymetrix scanner and GCOS protocols. Microarray data was analyzed with GeneSpring Microarray Suite. Results were normalized using a set of 100 probe sets determined by the manufacturer to have relatively invariant expression across most cell types."}, "GPR43": {"tested_on": "GPR43", "test": "QRT-PCR in CD14/CD16-separated cell fractions, GPR43 RNA", "conditions": "CD14/CD16++ macrophages, 10 μM MGBG, p=0.03", "method": "The changes induced by MGBG in different blood cell types were determined for osteopontin and adenosine deaminase and 7 other genes. For this experiment, blood samples were obtained from 6 healthy controls (3 men/3 women from 20 to 55 years of age) and mononuclear cells were isolated via Percoll gradient centrifugation. The cells were then incubated for 3 hours in RPMI media plus 10% fetal bovine serum at 37 C. At that point MGBG was added to 10 μM to half of each sample and then the cells were incubated at 37 C for 20 more hours. The cells were then bound to magnetic beads coated with antibodies to human CD16. Bound cells (CD16 expressing) were separated from unbound cells using an AutoMACs according to manufacturer's instructions (Miltenyi, Auburn Calif.). Then CD16+ cells are released from the magnetic beads and both the CD16+ and CD16− cells are combined with magnetic beads coated with antibodies to human CD14. Antibody bound and unbound cells were then separated using the AutoMACs machine. […] Cells that neither express CD16 nor CD14 (the −/− Cells). This is mostly T lymphocytes; 2. Cells that only express CD16. This includes contaminating granulocytes not removed by Percoll centrifugation and CD16+ monocytes with very low CD14 expression; 3. […] After separation, cells of each fraction are washed with PBS and the number of viable cells determined by trypan blue exclusion. […]"}, "adenosine deaminase": {"tested_on": "adenosine deaminase", "test": "QRT-PCR in CD14/CD16-separated cell fractions, adenosine deaminase RNA", "conditions": "10 μM MGBG", "method": "The changes induced by MGBG in different blood cell types were determined for osteopontin and adenosine deaminase and 7 other genes. For this experiment, blood samples were obtained from 6 healthy controls (3 men/3 women from 20 to 55 years of age) and mononuclear cells were isolated via Percoll gradient centrifugation. The cells were then incubated for 3 hours in RPMI media plus 10% fetal bovine serum at 37 C. At that point MGBG was added to 10 μM to half of each sample and then the cells were incubated at 37 C for 20 more hours. The cells were then bound to magnetic beads coated with antibodies to human CD16. Bound cells (CD16 expressing) were separated from unbound cells using an AutoMACs according to manufacturer's instructions (Miltenyi, Auburn Calif.). Then CD16+ cells are released from the magnetic beads and both the CD16+ and CD16− cells are combined with magnetic beads coated with antibodies to human CD14. Antibody bound and unbound cells were then separated using the AutoMACs machine. […] Cells that neither express CD16 nor CD14 (the −/− Cells). This is mostly T lymphocytes; 2. Cells that only express CD16. This includes contaminating granulocytes not removed by Percoll centrifugation and CD16+ monocytes with very low CD14 expression; 3. Cells that express both CD16 and CD14. This includes monocytes that are expressing CD16+ and macrophages (which express high levels of both); and 4. Cells that only express CD14. This would include most normal human monocytes. After separation, cells of each fraction are washed with PBS and the number of viable cells determined by trypan blue exclusion. RNA is then prepared from each cell group using TRIZOL, according to manufacturer's instructions."}, "CD14+ cells": {"tested_on": "CD14+ cells", "test": "Yield of CD14+ cells in culture, flow cytometry", "conditions": "10 μM MGBG; for % Reduction 14, Average: 5th day"}, "ADA": {"tested_on": "ADA", "test": "Microarray analysis of mononuclear cells, ADA", "conditions": "for ADA signal +, Average: 10 μM MGBG", "method": "as §4"}, "TNFα": {"tested_on": "TNFα", "test": "Microarray analysis of mononuclear cells, TNFα probe", "method": "as §4"}, "[1]": {"conditions": "10 μM MGBG overnight, individual samples"}, "[2]": {"conditions": "average of control samples (C6-, M6-177)"}, "[3]": {"conditions": "10 μM, individual donor samples"}, "[4]": {"conditions": "presence of 10 μM MGBG overnight, individual donor samples"}}, "note": "“And” between values parts separate entries of the source, which are not always exact repeats. Equal entries are not always repeated.", "data": [{"smiles": "CC(/C=N/NC(=N)N)=N\\NC(=N)N", "note": "[MGBG, 1,1′ [methylethanediylidene]dinitrilodiguanidine]", "values": [{"measurement": "Fold change G1P3 by QRT-PCR", "setting": "G1P3; [1]", "result": "1.92 fold and −1.25 fold (2×) and 1.31 fold and −2.03 fold and −1.14 fold (2×) and −2.04 fold and 2.13 fold and 1.22 fold (2×) and −2.99 fold and −6.63 fold and −1.95 fold and −2.85 fold and 1.47 fold and −1.66 fold and 1.68 fold"}, {"measurement": "G1P3 AVERAGE", "setting": "G1P3; 10 μM MGBG, all samples", "result": 0.96, "unit": "fold"}, {"measurement": "G1P3 MAX", "setting": "G1P3; 10 μM MGBG, all samples", "result": 2.13, "unit": "fold"}, {"measurement": "G1P3 MIN", "setting": "G1P3; 10 μM MGBG, all samples", "result": "−6.63", "unit": "fold"}, {"measurement": "Fold change IL6 by QRT-PCR", "setting": "IL6; [1]", "result": "−5.31 fold and 3.71 fold and 1.04 fold and 1.01 fold and −2.93 fold and −4.17 fold and 2.20 fold and 2.83 fold and −2.71 fold and −4.06 fold and 1.74 fold (2×) and 1.30 fold and 1.46 fold and −6.15 fold and −1.09 fold and −5.46 fold and 14.72 fold"}, {"measurement": "IL6 AVERAGE", "setting": "IL6; 10 μM MGBG, all samples", "result": 1.91, "unit": "fold"}, {"measurement": "IL6 MAX", "setting": "IL6; 10 μM MGBG, all samples", "result": 14.72, "unit": "fold"}, {"measurement": "IL6 MIN", "setting": "IL6; 10 μM MGBG, all samples", "result": "−6.15", "unit": "fold"}, {"measurement": "cell viability", "setting": "PBMCs", "result": "at least 75%"}, {"measurement": "Fold change LILRA1 by QRT-PCR", "setting": "LILRA1; [1]", "result": "−1.91 fold and 1.01 fold and −3.10 fold and 1.31 fold and −2.87 fold and 1.52 fold and −3.97 fold and −2.27 fold and 1.11 fold and 1.34 fold and −4.79 fold and −1.31 fold and 1.28 fold and 13.45 fold"}, {"measurement": "LILRA1 AVERAGE", "setting": "LILRA1; 10 μM MGBG, all samples", "result": 1.71, "unit": "fold"}, {"measurement": "LILRA1 MAX", "setting": "LILRA1; 10 μM MGBG, all samples", "result": 13.45, "unit": "fold"}, {"measurement": "LILRA1 MIN", "setting": "LILRA1; 10 μM MGBG, all samples", "result": "−4.79", "unit": "fold"}, {"measurement": "SPP1 signal +, Average", "setting": "SPP1; average of HIV samples", "result": 498}, {"measurement": "SPP1 signal +, Average", "setting": "SPP1; [2]", "result": 633}, {"measurement": "SPP1 fold change, ON/MGBG ratio (down-regulation)", "setting": "SPP1; [3]", "result": "60.5 fold and 47.8 fold and 11.5 fold and 43.9 fold and 0.7 fold and 7.0 fold and 2.3 fold and 438.8 fold and 1.4 fold and 5.7 fold and 5.9 fold and 68.0 fold and 57.9 fold and 4.2 fold and 1.2 fold"}, {"measurement": "samples with 2 fold or greater reductions in SPP1 signal", "setting": "SPP1; of the 15 samples evaluated", "result": 12}, {"measurement": "SPP1 signal +", "setting": "SPP1; [4]", "result": "1480 and 113 and 34 and 143 and 458 and 53 and 81 and 264 and 232 and 1519 and 1647 and 64 and 22 and 1684 and 487"}, {"measurement": "GPR43 expression median signal relative to no MGBG", "setting": "GPR43", "result": 2.4}, {"measurement": "ADA transcription median change (increase)", "setting": "adenosine deaminase; CD14+ monocytes, p=0.0156", "result": 10.8, "unit": "fold"}, {"measurement": "ADA transcription median change (increase)", "setting": "adenosine deaminase; CD14/CD16++ cells", "result": 2.8, "unit": "fold"}, {"measurement": "ADA transcription change", "setting": "adenosine deaminase; Double negative cells and CD16+ cells", "result": "did not change significantly"}, {"measurement": "% Reduction 14", "setting": "CD14+ cells; 5th day of culture, individual donor samples (HIV or healthy)", "result": "26% (2×) and 21% and 53% and 76% and 31% and <0% and 58%"}, {"measurement": "% Reduction 14, Average", "setting": "CD14+ cells; average of HIV samples", "result": 46.8, "unit": "%"}, {"measurement": "% Reduction 14, Average", "setting": "CD14+ cells; average of healthy samples", "result": 28.5, "unit": "%"}, {"measurement": "ADA signal +, Average", "setting": "ADA; average of HIV samples", "result": 4029}, {"measurement": "ADA signal +, Average", "setting": "ADA; [2]", "result": 5520}, {"measurement": "ADA fold change, MGBG/ON ratio (up-regulation)", "setting": "ADA; [3]", "result": "3.2 fold (2×) and 2.9 fold and 5.6 fold and 3.6 fold (2×) and 3.7 fold and 4.2 fold and 51.2 fold and 14.6 fold and 5.9 fold and 2.0 fold and 18.3 fold and 2.3 fold and 22.3 fold"}, {"measurement": "ADA regulation by MGBG", "setting": "ADA; all samples tested", "result": "consistently up-regulated"}, {"measurement": "ADA signal +", "setting": "ADA; [4]", "result": "769 and 6724 and 6874 and 1964 and 7488 and 5384 and 2900 and 5895 and 5781 and 6428 and 6731 and 1845 and 4290 and 832 and 5472"}, {"measurement": "samples less than 2 fold changed, TNFα probe", "setting": "TNFα; HIV infected individuals", "result": "6 out of 9"}, {"measurement": "samples less than 2 fold changed, TNFα probe", "setting": "TNFα; controls", "result": "2 out of 6"}, {"measurement": "average change for the TNFα Probe set, up-regulated", "setting": "TNFα; presence of MGBG, all samples", "result": 8.7, "unit": "fold"}]}]}
